Reference: patent US10098870B2 (JENKEM TECHNOLOGY CO., LTD. (BEIJING), priority 2013, dated 2018)
Values joined by “and” are separate entries in the source; they are usually repeats but may differ in a detail not shown here. Equal entries are not always repeated.

Assays:
[1] = test system: human hepatoma cell plc/prf/5; experiment: Anti-tumor effect on xenograft tumor model of plc/prf/5 in nude mice (Example 6); settings: for T/C (%) RTV / T/C (%) TW: vs physiological saline; for RTV / Tumor weight: 38th day, Mean ± SEM; for Tumor volume: mean ± SE
From the text: The tumor cells were passaged with digestion by trypsin-EDTA twice a week. The cells in the exponential growth phase were collected, counted, and used for inoculation.
10 days later the mean tumor volume was desired to reach about 161 mm^3, the mice with a smaller or larger tumor were removed and the remaining 24 mice were divided into groups randomly according to tumor volume and administrated.
Wherein QW×4W represents intravenous injection once a week for 4 weeks, BIW×4W represents intravenous injection once every two weeks for 4 weeks, the same below.

[2] = test system: Calu-6 human lung cancer cell; experiment: Anti-tumor effect on xenograft tumor model of Calu-6 in nude mice (Example 9); settings: for T/C (%) RTV / T/C (%) TW: vs physiological saline; for RTV / Tumor weight: 42nd day, Mean ± SEM; for Tumor volume: mean ± SE;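 as to all read-outs here: each nude mouse received 5.0×10^6 Calu-6 cells implanted at the right shoulder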
Procedure: Calu-6 cells were cultured with a monolayer in vitro in MEM medium supplied with heat-inactivated fetal bovine serum with a volume ratio of 10%, and an incubator at 37° C. with the air containing CO2 with a proportion of 5%. The tumor cells were passaged with digestion by trypsin-EDTA twice a week. The cells in the exponential growth phase were collected, counted, and used for inoculation.
5.0×10^6 of Calu-6 tumor cells were suspended in 0.1 ml of PBS, inoculated to each nude mouse at the right shoulder, and there were totally 34 mice inoculated.

[3] = Body weight, survival and tolerance of mice bearing plc/prf/5 (Example 6); format: in vivo, nude mouse; settings: mean ± SE
From the text: Wherein QW×4W represents intravenous injection once a week for 4 weeks, BIW×4W represents intravenous injection […] for 4 weeks, the same below. (2) Experimental Results

[4] = Body weight, survival and tolerance of mice bearing H460 (Example 8); settings: mean ± SE
Procedure: 5.0×10^6 of H460 tumor cells were suspended in 0.1 ml of PBS, inoculated to each nude mouse at the right shoulder, and there were totally 34 mice inoculated. 8 days later the mean tumor volume was desired to reach about 143 mm^3, the mice with a smaller or larger tumor were removed and the remaining 24 mice were divided into groups randomly according to tumor volume and administrated.

[5] = day 10 after inoculation, 30 mg/kg i.v. BIW×4W
[6] = day 10 after inoculation, 45 mg/kg i.v. QW×4W
[7] = day 13 after inoculation, 30 mg/kg i.v. BIW×4W
[8] = day 13 after inoculation, 45 mg/kg i.v. QW×4W
[9] = day 17 after inoculation, 30 mg/kg i.v. BIW×4W
[10] = day 17 after inoculation, 45 mg/kg i.v. QW×4W
[11] = day 20 after inoculation, 30 mg/kg i.v. BIW×4W
[12] = day 20 after inoculation, 45 mg/kg i.v. QW×4W
[13] = day 24 after inoculation, 30 mg/kg i.v. BIW×4W
[14] = day 24 after inoculation, 45 mg/kg i.v. QW×4W
[15] = day 27 after inoculation, 30 mg/kg i.v. BIW×4W
[16] = day 27 after inoculation, 45 mg/kg i.v. QW×4W
[17] = day 31 after inoculation, 30 mg/kg i.v. BIW×4W
[18] = day 31 after inoculation, 45 mg/kg i.v. QW×4W
[19] = day 34 after inoculation, 30 mg/kg i.v. BIW×4W
[20] = day 34 after inoculation, 45 mg/kg i.v. QW×4W
[21] = day 38 after inoculation, 30 mg/kg i.v. BIW×4W
[22] = day 38 after inoculation, 45 mg/kg i.v. QW×4W

In the case of “monomethoxy polyethylene glycol (20K)-glutamic acid dipeptide-rapamycin conjugate [LPR-2]”, the “TGD (to 1,000 mm^3)” value ([1]; 30 mg/kg i.v. BIW×4W) is reported as >12, the “T/C (%) RTV” value ([1]; 30 mg/kg i.v. BIW×4W) is reported as 29% and the “T/C (%) TW” value ([1]; 30 mg/kg i.v. BIW×4W) is reported as 27%. For the same substance, the “TGD (to 1,000 mm^3)” value ([1]; 45 mg/kg i.v. QW×4W) was >12, the “T/C (%) RTV” value ([1]; 45 mg/kg i.v. QW×4W) was 46% and the “T/C (%) TW” value ([1]; 45 mg/kg i.v. QW×4W) was 45%. For the same substance, the “anti-tumor effect (in words)” value ([1]; 5-FU 25 mg/kg, LPR-2 30 and 45 mg/kg) was “significant anti-tumor effect”, the RTV ([1]; 30 mg/kg i.v. BIW×4W) was 3.48 ± 0.68 and the Tumor weight ([1]; 30 mg/kg i.v. BIW×4W) was 517 ± 67 mg. It also gave an RTV ([1]; 45 mg/kg i.v. QW×4W) of 5.61 ± 0.67, a Tumor weight ([1]; 45 mg/kg i.v. QW×4W) of 845 ± 87 mg and a Tumor volume [1, 5] of 171 ± 15 mm^3. For the same substance, the Tumor volume [1, 6] was 171 ± 19 mm^3, the Tumor volume [1, 7] was 176 ± 11 mm^3 and the Tumor volume [1, 8] was 180 ± 25 mm^3. The Tumor volume [1, 9] was 217 ± 25 mm^3, the Tumor volume [1, 10] was 234 ± 28 mm^3 and the Tumor volume [1, 11] was 260 ± 30 mm^3. For the same substance, the Tumor volume [1, 12] was 257 ± 24 mm^3, the Tumor volume [1, 13] was 303 ± 32 mm^3 and the Tumor volume [1, 14] was 399 ± 25 mm^3. The Tumor volume [1, 15] was 317 ± 42 mm^3, the Tumor volume [1, 16] was 496 ± 39 mm^3 and the Tumor volume [1, 17] was 395 ± 39 mm^3. The Tumor volume [1, 18] was 607 ± 60 mm^3, the Tumor volume [1, 19] was 437 ± 44 mm^3 and the Tumor volume [1, 20] was 640 ± 93 mm^3. The Tumor volume ([1]; day 38 after inoculation, 30 mg/kg i.v. BIW×4W, 30 mg/kg) was 553 mm^3 and 553 ± 63 mm^3, the “TGD (to 1,000 mm^3)” value ([2]; 30 mg/kg i.v. BIW×4W) was >8 and the “T/C (%) RTV” value ([2]; 30 mg/kg i.v. BIW×4W) was 31%. The “T/C (%) TW” value ([2]; 30 mg/kg i.v. BIW×4W) was 28%, the “TGD (to 1,000 mm^3)” value ([2]; 45 mg/kg i.v. QW×4W) was >8 and the “T/C (%) RTV” value ([2]; 45 mg/kg i.v. QW×4W) was 38%. The “T/C (%) TW” value ([2]; 45 mg/kg i.v. QW×4W) was 37%, the RTV ([2]; 30 mg/kg i.v. BIW×4W) was 4.39 ± 0.59 and the Tumor weight ([2]; 30 mg/kg i.v. BIW×4W) was 449 ± 89 mg. The RTV ([2]; 45 mg/kg i.v. QW×4W) was 5.41 ± 0.51, the Tumor weight ([2]; 45 mg/kg i.v. QW×4W) was 602 ± 83 mg and the Tumor volume ([2]; day 14 after inoculation, 30 mg/kg i.v. BIW×4W) was 139 ± 18 mm^3. The Tumor volume ([2]; day 14 after inoculation, 45 mg/kg i.v. QW×4W) was 137 ± 22 mm^3, the Tumor volume [2, 9] was 160 ± 25 mm^3 and the Tumor volume [2, 10] was 152 ± 25 mm^3. For the same substance, the Tumor volume ([2]; day 21 after inoculation, 30 mg/kg i.v. BIW×4W) was 201 ± 40 mm^3, the Tumor volume ([2]; day 21 after inoculation, 45 mg/kg i.v. QW×4W) was 204 ± 38 mm^3 and the Tumor volume [2, 13] was 241 ± 50 mm^3. It also gave a Tumor volume [2, 14] of 245 ± 40 mm^3, a Tumor volume ([2]; day 28 after inoculation, 30 mg/kg i.v. BIW×4W) of 274 ± 57 mm^3 and a Tumor volume ([2]; day 28 after inoculation, 45 mg/kg i.v. QW×4W) of 293 ± 44 mm^3. It also gave a Tumor volume [2, 17] of 335 ± 76 mm^3, a Tumor volume [2, 18] of 323 ± 45 mm^3 and a Tumor volume ([2]; day 35 after inoculation, 30 mg/kg i.v. BIW×4W) of 422 ± 108 mm^3. The Tumor volume ([2]; day 35 after inoculation, 45 mg/kg i.v. QW×4W) was 436 ± 74 mm^3, the Tumor volume [2, 21] was 504 ± 119 mm^3 and the Tumor volume [2, 22] was 518 ± 87 mm^3. The Tumor volume ([2]; day 42 after inoculation, 30 mg/kg i.v. BIW×4W, 30 mg/kg) was 627 ± 145 mm^3, the Tumor volume ([2]; day 42 after inoculation, 45 mg/kg i.v. QW×4W, 45 mg/kg) was 720 ± 106 mm^3 and the “Body weight of animal” value [3, 5] was 19.9 ± 0.5 g. The “Body weight of animal” value [3, 6] was 19.8 ± 0.5 g, the “Body weight of animal” value [3, 7] was 19.6 ± 0.8 g and the “Body weight of animal” value [3, 8] was 18.9 ± 0.5 g. The “Body weight of animal” value [3, 9] was 20.7 ± 0.7 g, the “Body weight of animal” value [3, 10] was 20.2 ± 0.3 g and the “Body weight of animal” value [3, 11] was 20.4 ± 0.6 g. The “Body weight of animal” value [3, 12] was 19.7 ± 0.3 g, the “Body weight of animal” value [3, 13] was 20.6 ± 0.7 g and the “Body weight of animal” value [3, 14] was 21.1 ± 0.3 g. The “Body weight of animal” value [3, 15] was 20.5 ± 0.6 g, the “Body weight of animal” value [3, 16] was 20.7 ± 0.2 g and the “Body weight of animal” value [3, 17] was 20.1 ± 0.6 g. The “Body weight of animal” value [3, 18] was 21.0 ± 0.2 g, the “Body weight of animal” value [3, 19] was 19.5 ± 0.6 g and the “Body weight of animal” value [3, 20] was 19.7 ± 0.5 g. The “Body weight of animal” value [3, 21] was 19.8 ± 0.7 g, the “Body weight of animal” value [3, 22] was 20.7 ± 0.3 g and the “Body weight of animal” value ([4]; day 8 after inoculation, 30 mg/kg i.v. BIW×3W) was 20.5 ± 0.5 g. For the same substance, the “Body weight of animal” value ([4]; day 8 after inoculation, 45 mg/kg i.v. QW×3W) was 20.2 ± 0.4 g, the “Body weight of animal” value ([4]; day 12 after inoculation, 30 mg/kg i.v. BIW×3W) was 20.3 ± 0.5 g and the “Body weight of animal” value ([4]; day 12 after inoculation, 45 mg/kg i.v. QW×3W) was 19.8 ± 0.3 g. The “Body weight of animal” value ([4]; day 15 after inoculation, 30 mg/kg i.v. BIW×3W) was 20.7 ± 0.4 g, the “Body weight of animal” value ([4]; day 15 after inoculation, 45 mg/kg i.v. QW×3W) was 20.9 ± 0.3 g and the “Body weight of animal” value ([4]; day 19 after inoculation, 30 mg/kg i.v. BIW×3W) was 21.0 ± 0.5 g. For the same substance, the “Body weight of animal” value ([4]; day 19 after inoculation, 45 mg/kg i.v. QW×3W) was 20.7 ± 0.3 g, the “Body weight of animal” value ([4]; day 22 after inoculation, 30 mg/kg i.v. BIW×3W) was 20.7 ± 0.4 g and the “Body weight of animal” value ([4]; day 22 after inoculation, 45 mg/kg i.v. QW×3W) was 20.4 ± 0.3 g. For the same substance, the “Body weight of animal” value ([4]; day 26 after inoculation, 30 mg/kg i.v. BIW×3W) was 20.9 ± 0.5 g, the “Body weight of animal” value ([4]; day 26 after inoculation, 45 mg/kg i.v. QW×3W) was 21.4 ± 0.3 g and the “Body weight of animal” value ([4]; day 29 after inoculation, 30 mg/kg i.v. BIW×3W) was 21.1 ± 0.4 g. For the same substance, the “Body weight of animal” value ([4]; day 29 after inoculation, 45 mg/kg i.v. QW×3W) was 22.1 ± 0.3 g.
